The record followed here is article PMC6302548, “Dual Inhibition of the Lactate Transporters MCT1 and MCT4 Is Synthetic Lethal with Metformin due to NAD+ Depletion in Cancer Cells” (Cell Reports, 2018).

The target of experiment [1] is T1, MCT4 (monocarboxylate transporter 4) (Homo sapiens, UniProt O15427).
T1 construct: gene SLC16A3
T1 sequence (O15427 2-465): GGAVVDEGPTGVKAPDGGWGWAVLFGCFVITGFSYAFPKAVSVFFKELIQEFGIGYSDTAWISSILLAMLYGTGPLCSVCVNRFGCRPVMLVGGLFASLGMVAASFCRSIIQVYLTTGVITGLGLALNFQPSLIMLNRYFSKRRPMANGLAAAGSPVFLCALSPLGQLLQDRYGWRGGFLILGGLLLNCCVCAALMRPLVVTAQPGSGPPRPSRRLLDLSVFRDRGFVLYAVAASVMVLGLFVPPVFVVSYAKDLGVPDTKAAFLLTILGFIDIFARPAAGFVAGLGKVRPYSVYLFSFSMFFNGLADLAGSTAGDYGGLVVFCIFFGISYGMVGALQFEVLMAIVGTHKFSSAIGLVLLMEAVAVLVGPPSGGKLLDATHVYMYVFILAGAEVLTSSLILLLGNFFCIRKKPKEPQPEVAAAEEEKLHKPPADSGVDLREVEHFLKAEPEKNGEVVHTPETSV
T1 sequence (P35613 22-385 partner): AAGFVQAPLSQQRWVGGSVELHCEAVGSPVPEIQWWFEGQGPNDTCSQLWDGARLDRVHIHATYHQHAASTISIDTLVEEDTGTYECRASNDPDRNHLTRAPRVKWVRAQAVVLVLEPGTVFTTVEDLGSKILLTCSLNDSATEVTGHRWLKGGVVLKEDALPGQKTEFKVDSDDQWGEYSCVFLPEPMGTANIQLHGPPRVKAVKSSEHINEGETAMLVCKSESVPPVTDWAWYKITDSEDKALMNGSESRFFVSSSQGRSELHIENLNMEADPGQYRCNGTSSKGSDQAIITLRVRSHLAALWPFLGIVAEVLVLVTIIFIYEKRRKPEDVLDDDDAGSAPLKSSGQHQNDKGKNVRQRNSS
Description: intracellular lactate accumulation and 3H-lactate efflux in HAP1 MCT1-KO cells; DARTS in HCT116 membrane extracts. Type of experiment: cell-based.

For experiment [2], the target named is T2, MCT1 (monocarboxylate transporter 1) (Homo sapiens, UniProt P53985).
T2 construct: gene SLC16A1
T2 sequence (P53985 1-500): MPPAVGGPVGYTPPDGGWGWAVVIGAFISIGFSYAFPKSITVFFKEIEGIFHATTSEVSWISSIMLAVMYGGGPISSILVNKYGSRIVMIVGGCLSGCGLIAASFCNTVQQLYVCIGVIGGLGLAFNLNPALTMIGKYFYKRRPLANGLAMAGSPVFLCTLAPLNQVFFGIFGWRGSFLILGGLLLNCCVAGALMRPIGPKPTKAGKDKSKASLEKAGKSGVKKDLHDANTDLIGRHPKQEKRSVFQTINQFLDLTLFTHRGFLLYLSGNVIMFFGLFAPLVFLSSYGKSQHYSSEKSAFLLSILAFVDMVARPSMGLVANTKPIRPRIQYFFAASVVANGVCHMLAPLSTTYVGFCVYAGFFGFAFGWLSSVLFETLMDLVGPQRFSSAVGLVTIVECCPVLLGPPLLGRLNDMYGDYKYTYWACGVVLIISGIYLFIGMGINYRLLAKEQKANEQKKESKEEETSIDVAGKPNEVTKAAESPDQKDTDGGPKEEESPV
T2 sequence (P35613 22-385 partner): T1 sequence (P35613 22-385 partner)
Description: intracellular lactate accumulation and 3H-lactate efflux in HAP1 MCT4-KO cells; DARTS in HCT116 membrane extracts.

pIC50: −log10 of the molar value.

For `CCOC(=O)Oc1c(OC)cc(C(=O)O[C@@H]2C[C@@H]3CN4CCc5c([nH]c6cc(OC)ccc56)[C@H]4C[C@@H]3[C@H](C(=O)OC)[C@H]2OC)cc1OC` [Syrosingopine], the pIC50 was roughly 7.40 in experiment [1] and roughly 5.60 in experiment [2].
